From article PMC5120274, “Characterization of the Annonaceous acetogenin, annonacinone, a natural product inhibitor of plasminogen activator inhibitor-1” (Scientific Reports, 2016)
Several values for one entry are separate records, joined by “and”; a condition that tells them apart may be missing. Identical values can stand only once. Like-named read-outs stand apart in the source and are kept apart here.

What was measured:
PAI-1 [1] = target: T1, PAI-1 (Homo sapiens, UniProt P05121); experiment: chromogenic screening assay: rate of tPA inhibition by PAI-1 (spectrozyme tPA hydrolysis); type: biochemical; conditions: for kapp 50 μM (apparent rate constant of tPA inhibition by PAI-1): compound 50 μM, 1% DMSO, PAI-1 20 nM, tPA 10 nM, DMSO 1% control 4.4 ± 0.3 × 10^-3
T1 construct: purchased Stago BNL (Asnières sur Seine, FR)
T1 sequence (P05121 24-402): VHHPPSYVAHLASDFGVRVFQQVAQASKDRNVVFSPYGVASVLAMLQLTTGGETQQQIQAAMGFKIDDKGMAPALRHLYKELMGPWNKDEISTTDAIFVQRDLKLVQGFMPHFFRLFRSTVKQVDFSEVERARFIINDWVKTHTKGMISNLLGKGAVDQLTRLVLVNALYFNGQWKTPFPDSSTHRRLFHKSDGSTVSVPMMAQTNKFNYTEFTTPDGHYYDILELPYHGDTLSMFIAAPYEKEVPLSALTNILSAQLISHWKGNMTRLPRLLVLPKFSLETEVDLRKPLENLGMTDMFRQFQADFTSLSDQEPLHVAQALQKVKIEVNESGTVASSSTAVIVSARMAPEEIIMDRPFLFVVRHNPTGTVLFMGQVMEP
Protocol: Compounds from our local collection BioCIS and from the Prestwick compound library (Prestwick chemicals, Illkirch, FR), a collection containing only FDA approved drugs (around 4000 compounds in total) were tested in a chromogenic assay measuring the inhibition rate of tPA-catalyzed spectrozyme® tPA hydrolysis in the presence of PAI-1. Compounds (20 μL, final concentration 50 μM, 1% DMSO) were dispensed in a 96 well half area Greiner plate. A mixture containing 20 μL of PAI-1 (final concentration 20 nM) and 80 μL of Spectrozyme-tPA (final concentration 400 μM) was then added, and the mixture pre-incubated for 45 minutes at 37 °C. At the end of pre-incubation time, 90 μL of the mixture were added to another 96 well half area plate containing 10 μL tPA (final concentration 10 nM). The kinetic was then measured at 405 nm for 45 min at 37 °C in an Envision microplate reader. Progress curves were fitted using the pseudo first order equation to determine the apparent rate constant k.

PAI-1 [2] = target: T1, PAI-1; experiment: thromboelastography (TEG) on pooled human plasma with tPA and PAI-1; type: biochemical; conditions: compound 50 μM, tPA 9 nM + PAI-1 22 nM
Protocol: 20 μL of CaCl2 (0.2 M), 10 μL of PAI-1 (final concentration 22 nM) and 10 μL of tested compounds were added in a TEG cup and pre-incubated for 20 min at room temperature. On the other hand, 1 mL of pooled citrated normal human plasma (pool of at least 10 healthy donors) was added to a vial containing 20 μL of Kaolin. 680 μl of the plasma/Kaolin mixture were then added to 20 μL of tPA (final concentration 9 nM). At the end of pre-incubation time, 320 μL of the plasma/tPA/kaolin mixture were transferred into the TEG cup and the thromboelastogram measured.

vitronectin-bound PAI-1 = conditions: cited from earlier work
[3] = chromogenic screening assay, without vitronectin, mean ± SEM, n = 3, read-out: IC50

In the case of `CCCCCCCCCC[C@H](O)[C@H]1CC[C@H]([C@H]2CC[C@H]([C@H](O)CCCCCCCCCCC(O)CC3=C[C@H](C)OC3=O)O2)O1` (stereo partly shown) [Rolliniastatin-2], the IC50 (PAI-1 [1]; [3]) is reported as 19 ± 1 µM and the “kapp 50 μM (apparent rate constant of tPA inhibition by PAI-1)” value (PAI-1 [1]; mean ± SEM, n = 3) is reported as 7.5 ± 0.5 × 10^-4 s^-1.

For `CCCCCCCCCC[C@H](O)[C@H]1CC[C@H]([C@H]2CC[C@H]([C@H](O)CCCCCCCCCCC3CC(CC(C)=O)C(=O)O3)O2)O1` (stereo partly shown) [Isorolliniastatin-2], the IC50 (PAI-1 [1]; [3]) was 10 ± 2 µM and the “kapp 50 μM (apparent rate constant of tPA inhibition by PAI-1)” value (PAI-1 [1]; mean ± SEM, n = 3) was 8.5 ± 0.6 × 10^-4 s^-1.

In the case of `CCCCCCCCCCCC[C@@H](O)[C@H]1CC[C@H]([C@H](O)CCCC[C@H](O)CCCCCC2CC(CC(C)=O)C(=O)O2)O1` (stereo partly shown) [Isoannonacine], the IC50 (PAI-1 [1]) is reported as over 50 µM and the “kapp 50 μM (apparent rate constant of tPA inhibition by PAI-1)” value (PAI-1 [1]; mean ± SEM, n = 3) is reported as 1.1 ± 0.1 × 10^-3 s^-1.

In the case of `O=C(O)C(=O)c1cn(Cc2ccccc2)c2ccc(-c3ccc(OC(F)(F)F)cc3)cc12` [Tiplaxtinin, reference compound], the “kapp 50 μM (apparent rate constant of tPA inhibition by PAI-1)” value (PAI-1 [1]; mean ± SEM, n = 3) is reported as 1.7 ± 0.3 × 10^-3 s^-1, the “kapp 50 μM (apparent rate constant of tPA inhibition by PAI-1)” value (PAI-1 [1]; mean ± SEM, n = 3, listed as tiplaxtinin) is reported as 1.7 ± 0.3 × 10^−3 s^-1 and the Angle (PAI-1 [2]) is reported as 66.2 °. The “K (clot formation time)” value (PAI-1 [2]) was 1.8 min, the “MA (maximal amplitude)” value (PAI-1 [2]) was 24.5 mm and the “R (clotting time)” value (PAI-1 [2]) was 7 min. For the same compound, the “LY30 (clot lysis 30 minutes after maximal amplitude)” value (PAI-1 [2]; tPA alone 94.3%, tPA + PAI-1 0%) was 21.9%, the “LY60 (clot lysis 60 minutes after maximal amplitude)” value (PAI-1 [2]; tPA alone 96.8%, tPA + PAI-1 0%) was 50% and 50.2% and the “activity against PAI-1 bound to vitronectin” value (vitronectin-bound PAI-1) was “devoid of activity”. The “activity against vitronectin-bound PAI-1” value (vitronectin-bound PAI-1) was “inactive”.

In the case of `CCCCCc1c(-c2ccc3cc(OCc4nnn[nH]4)ccc3c2)n(Cc2ccccc2)c2ccccc12` [PAI-749], the “activity against PAI-1 bound to vitronectin” value (vitronectin-bound PAI-1) is given as “devoid of activity”.

With `CCCCCCCCCCCC[C@@H](O)[C@H]1CC[C@H]([C@H](O)CCCC[C@H](O)CCCCC[C@@H](O)CC2=CC(C)OC2=O)O1` (stereo partly shown) [Annonacine] the IC50 (PAI-1 [1]) was 6 ± 3 µM and the “kapp 50 μM (apparent rate constant of tPA inhibition by PAI-1)” value (PAI-1 [1]; mean ± SEM, n = 3) was 6.4 ± 0.4 × 10^-4 s^-1.
